Experiments:
[1] = test system: human foreskin fibroblast (HFF) cell monolayers; experiment: Toxicity effects controls (sham-inoculated compound treated HFF monolayers); format: cell-based
From the text: Sham-incolulated, non-treated HFF cell monolayers were included along with the drug-treated monolayers as "cell monolayer controls". • 1. HSV-1 inoculated, non-compound treated HFF monolayers were included as "positive controls"; and • 2.
In the tables, the symbols have the meaning indicated: + = toxic; - = no toxicity; +/- = mild toxicity; ND = not done; T = toxicity effects interfered with CPE rating; CPE = cytopathic effect.

VZV = experiment: In vitro assay with VZV on HFF cell monolayers; format: cell-based; conditions: Example 2, Table 17, 0.1 mg/ml, footnote: this toxicity observation is questionable
Experimental: VZV was grown to a CPE level […] of 3-4 + on HFF cell monolayers. The VZV was scraped from the flask, centrifuged and the cell pellet was resuspended in 10 ml of complete medium. 100 to 200 µl of the VZV cell associated inoculum was inoculated onto confluent HFF cell monolayers by absorption for 60 minutes at 37°C. After absorption of the virus, the inoculum was aspirated from the cell monolayers.
The VZV-infected monolayers were rehydrated with medium containing the appropriate concentrations of compounds to be tested. All monolayers were incubated at 37°C. Development of VZV cytopathology was monitored daily for 7 days by inverted light microscopy. Titers were calculated by multiple regression analysis.

[2] = Experiment 5, Table 12, 48 Hours Post Incubation, 0.001 mg/ml
[3] = Experiment 5, Table 12, 48 Hours Post Incubation, 0.01 mg/ml
[4] = Experiment 5, Table 12, 48 Hours Post Incubation, 1 mg/ml

SMILES: CC1=CC(C)=[N+]2CC[N+]3=C(C)C=C(C)[O][Co-3]23([NH2])([NH3+])[O]1 [Compound 23, reference compound]
- TOXICITY EFFECTS CONTROLS ([1]; Experiment 2, Table 4, 0.001 mg/ml, 24 h PI): -
- TOXICITY EFFECTS CONTROLS ([1]; Experiment 2, Table 4, 0.001 mg/ml, 48 h PI): -
- TOXICITY EFFECTS CONTROLS ([1]; Experiment 2, Table 4, 0.01 mg/ml, 24 h PI): -
- TOXICITY EFFECTS CONTROLS ([1]; Experiment 2, Table 4, 0.01 mg/ml, 48 h PI): -
- TOXICITY EFFECTS CONTROLS ([1]; Experiment 2, Table 4, 0.1 mg/ml, 24 h PI): -
- TOXICITY EFFECTS CONTROLS ([1]; Experiment 2, Table 4, 0.1 mg/ml, 48 h PI): -
- TOXICITY EFFECTS CONTROLS ([1]; Experiment 2, Table 4, 1 mg/ml, 24 h PI): +/-
- TOXICITY EFFECTS CONTROLS ([1]; Experiment 2, Table 4, 1 mg/ml, 48 h PI): +/-
- TOXICITY EFFECTS CONTROLS [1, 2]: -
- TOXICITY EFFECTS CONTROLS [1, 3]: -
- TOXICITY EFFECTS CONTROLS ([1]; Experiment 5, Table 12, 48 Hours Post Incubation, 0.1 mg/ml): -
- TOXICITY EFFECTS CONTROLS ([1]; Experiment 5, Table 12, 48 Hours Post Incubation, 0.5 mg/ml): -
- TOXICITY EFFECTS CONTROLS [1, 4]: -
- TOXICITY EFFECTS CONTROLS ([1]; Experiment 5, Table 12, 48 Hours Post Incubation, 2 mg/ml): +/-
- TOXICITY EFFECTS CONTROLS ([1]; Experiment 5, Table 12, 48 Hours Post Incubation, 5 mg/ml): +/-
- VIRUCIDAL EFFICACY 7 Days Post Inoculation Efficacy (VZV): T?

SMILES: CC1=C(Cl)C(C)=[N+]2CC[N+]3=C(C)C(Cl)=C(C)[O][Co-3]23([n+]2cc[nH]c2)([n+]2cc[nH]c2)[O]1 [Compound 93]
- TOXICITY EFFECTS CONTROLS ([1]; Experiment 3, Table 7, 0.001 mg/ml, 24 hrs post incubation): -
- TOXICITY EFFECTS CONTROLS ([1]; Experiment 3, Table 7, 0.001 mg/ml, 48 hrs post incubation): -
- TOXICITY EFFECTS CONTROLS ([1]; Experiment 3, Table 7, 0.01 mg/ml, 24 hrs post incubation): -
- TOXICITY EFFECTS CONTROLS ([1]; Experiment 3, Table 7, 0.01 mg/ml, 48 hrs post incubation): -
- TOXICITY EFFECTS CONTROLS ([1]; Experiment 3, Table 7, 0.1 mg/ml, 24 hrs post incubation): -
- TOXICITY EFFECTS CONTROLS ([1]; Experiment 3, Table 7, 0.1 mg/ml, 48 hrs post incubation): +/-
- TOXICITY EFFECTS CONTROLS ([1]; Experiment 3, Table 7, 0.5 mg/ml, 24 hrs post incubation): -
- TOXICITY EFFECTS CONTROLS ([1]; Experiment 3, Table 7, 0.5 mg/ml, 48 hrs post incubation): -
- TOXICITY EFFECTS CONTROLS ([1]; Experiment 3, Table 7, 1 mg/ml, 24 hrs post incubation): -
- TOXICITY EFFECTS CONTROLS ([1]; Experiment 3, Table 7, 1 mg/ml, 48 hrs post incubation): -
- TOXICITY EFFECTS CONTROLS ([1]; Experiment 3, Table 7, 5 mg/ml, 24 hrs post incubation): +/-
- TOXICITY EFFECTS CONTROLS ([1]; Experiment 3, Table 7, 5 mg/ml, 48 hrs post incubation): +/-
- TOXICITY EFFECTS CONTROLS [1, 2]: -
- TOXICITY EFFECTS CONTROLS [1, 3]: -
- TOXICITY EFFECTS CONTROLS [1, 4]: +/-
- toxicity ([1]; Experiment 5, cell rounding, detaching from the monolayer, increased granularity, loss of normal morphology): more pronounced in the 0.5 and the 0.1 mg/ml concentrations
- VIRUCIDAL EFFICACY 7 Days Post Inoculation Efficacy (VZV): T?

— patent EP1075186B1, “METHOD OF HSV PROPHYLAXIS” (The Children's Hospital Research Foundation, priority 1998, dated 1999)
